Measured values reported in patent US8147837B2, “Use of mycobacterial mannosylated lipoglycans peptide mimotopes for treating inflammation” (priority 2004, dated 2012).
Ends that are not written are not given here.

Columns and labels:
[1] = test system: IgG antibodies in sera of Mtb-infected mice; type: binding, BALB/c mice
[2] = test system: RAW 264.7 macrophage cell line; assay: Cytokine secretion in RAW 264.7 cells (cytokine ELISA); type: cell-based, murine
TNBS induced colitis = assay: TNBS induced colitis; type: in vivo, C57BL/6 mice
Experimental: In Specific pathogen-free male 4 month old C57BL/6 mice lightly anesthetized a 3.5F catheter was carefully inserted into the colon (4 cm proximal to the anus) administering 0.5 mg of the hapten reagent TNBS (Sigma) in 50% ethanol into the lumen of the colon at days 1 and 5. Animals were then kept in a vertical position for […] and returned to their cages. The mice were monitored for weight loss, behavior, appearance and diarrhea for 11 days. On day 11 mice were sacrificed and tested from macroscopic inflammation symptoms in the spleen, liver and colon [Neurath M. et al., J Exp Med. 182:1281-90. (1995)].
Mice treated with B11 peptide were treated i.p. with 200 μg/mouse on days 1 and 5.

[3] = test system: CS40 anti-ManLAM monoclonal antibody; assay: ELISA competition vs. ManLAM for CS40 mAb; type: binding; conditions: 50 μg/ml of peptide
Experimental: ELISA competition assay was performed as described [Kaur, D., et al. Microbiology 148:3049-3057 (2002)]. Briefly, plates were coated with 0.5 μg/well ManLAM. Plates were blocked as described above. The CS40 mAb (diluted 1:2000) was mixed with various concentrations of either phage particles in TBS/1% BSA (0-1×10^18 particles/well) or peptides in PBS/1% BSA (0-200 μg/well). […] After washing (PBS), the ELISA procedure was performed as described above. Samples were all tested in triplicate.

RAW 264.7 cell line = assay: Apoptosis of RAW 264.7 cells; type: cell-based, murine
[4] = test system: serum antibodies of TB patients; assay: ELISA of human TB patients' sera on ManLAM or B11 coated plates; type: binding
From the text: Marchal (Pasteur Institute, Paris).

CS40 mAb = assay: Direct peptide ELISA with CS40 mAb; type: binding
allergic asthma = assay: OVA induced allergic asthma model; type: in vivo, mice
Experimental: For the induction of allergic asthma, mice were sensitized with OVA (Grade V, Sigma) adsorbed to Al(OH)3 gel (Aldrich Chemical Company, Milwaukee, Wis.), using 8 mg OVA/2 ml gel/0.5 ml H2O, pH 7.0-7.5, given intraperitoneally on days 0 and 14. On days 24 and 27 mice were challenged (induction of allergic asthma) with OVA i.n. Negative control group were sensitized with saline. The sensitization and challenge protocol used is an adaptation of a reported procedure [Blyth D. et al., Am. J. Respir. Cell Mol. Biol., 14: 425-438. (1996)].
Twenty-four hours after the second challenge mice were sacrificed. Bronchoalveolar lavage (BAL) was performed with PBS. Eosinophils in Bronchoalveolar lavage fluid (BALF) were detected as described above. Cytokine ELISA was performed to determine cytokine levels in BALF.
Mice treated with B11 peptide were treated with 200 μg/mouse 2 days before sensitizations (Group-S i.p.), 2 days before challenges i.p. (Group-C i.p.), or 1 hour before challenge i.n. (Group-C i.n.) and 2 days both before sensitization and challenge (Group-S+C i.p.).
Lung were excised and examined histologically and photographed after staining with haematoxylin and eosin.
(§1) Cytokine levels in mouse sera, cell supernatants, peritoneum lavage, and BALF were assessed by ELISA tests using commercial pairs of antibodies and recombinant cytokines for TNFα IFN-γ, IL-10 and IL-4 (Pharmingen International, Oxford, UK), and IL-12 (Biosource International, Camarillo, Calif.) according to the manufacturer's instructions. The ranges of the sensitivities of the ELISA for the murine cytokines were 15-200 pg/ml for TNF-α, IFN-γ, IL-10, and IL-4, and 15-500 pg/ml for IL-12.

LPS-induced symptoms [5] = assay: LPS mice model; type: in vivo, BALB/c mice; conditions: B11 post-treatment, LPS 150 μg i.p.
primary spleen cells = assay: Proliferation of primary spleen cells; type: cell-based, BALB/c mice
allergic peritonitis = assay: OVA induced allergic peritonitis model; type: in vivo, BALB/c mice
Experimental: For induction of allergic peritonitis, female BALB/c mice, 5-6 weeks old, were sensitized twice on days 1 and 7 by subcutaneous (s.c.) injection of 0.4 ml of a 0.9% solution of NaCl containing 100 μg ovalbumin (OVA) adsorbed on 1.6 mg Al(OH)3 (all Sigma) the mice received a second dose of the same s.c. injection. On day 11 Peritonitis was induced by the intraperitoneal (i.p.) injection of 0.4 ml of a solution containing 5 μg/ml OVA diluted in saline [Temkin V. et al., Cytokine. 24:74-80. (2003)]. Negative control group were sensitized with saline. On day 12 mice were sacrificed (24 h after challenge (peritonitis induction)), and the peritoneal cavity was washed with 5 ml of Tyrode buffer (3 mmol/L potassium chloride, 10 mmol/L sodium hydrogen carbonate, 20 mmol/L sodium chloride, 0.36 mmol/L sodium phosphate, 0.1% glucose (all Sigma)) containing 0.1% gelatin (TG buffer). Peritoneal lavage fluid was centrifuged (5 minutes, 150 g), supernatants were saved for cytokine ELISA, and cell pellets were re-suspended in 2 ml of TG buffer for eosinophil quantification. Cells were stained for 30 min. with Phycoerytrin (PE)-labeled anti-CCR3Ab (0.625 μg/ml; R&D systems, Abingdon, UK) and eosinophils were defined as cells expressing the eotaxin receptor CCR3 [Grimaldi et al., J Leukoc Biol. 65:846-53. (1999)] by FACS analysis.
Mice treated with B11 peptide were treated i.p. with 200 μg/mouse 1 hour before sensitizations (Group-S), 1 hour before challenge (Group-C), and 1 hour before both sensitizations and challenge (Group-S+C).
as §1

LPS-induced symptoms [6] = assay: LPS mice model; type: in vivo, BALB/c mice
Experimental: Female BALB/c mice, 6-7 weeks old were injected i.p. with 150 μg LPS (Sigma) per mouse.
Treatment with peptide was performed four days before LPS injection, (i.p. 200 μg peptide per mouse).

[7] = test system: THP-1 human monocyte cell line; assay: FITC-labeled peptide binding to THP-1 (FACS); type: cell-based
Experimental: (§2) RAW 264.7 cells were grown in a 250-ml flask, washed 3 times in cold PBS, and harvested, THP-1 cells were grown to 10^6/ml in 250-ml flask, centrifuged at 3000 rpm for 10 min, then washed 3 times in cold PBS. Cells were then incubated for 15 min at 37° C., with the FITC-labeled peptide diluted 1:50, then washed 3 times in cold PBS. The fluorescence levels of 10,000 cell counts were determined by FACS (Becton Dickinson, Franklin Lakes, N.J.) and analyzed by CELLQuest™ software. Assay of competitive binding between D-mannose and the FITC-labeled B11 peptide was performed according to Nguyen and Hildreth [Nguyen, D. G., and Hildreth, J. E. Eur J Immunol 33:483-493 (2003)].

[8] = test system: macrophage cell line RAW 264.7; assay: FITC-labeled peptide binding to RAW 264.7 (confocal microscopy, FACS); type: cell-based, murine
Experimental: B11 peptide (50 μg) was conjugated to FITC (Biotium, Hayward, Calif.) as described by Sethi et al., [Sethi, K. K., et al. Cell Motil Cytoskeleton 52:231-241 (2002)]. For confocal microscopy, RAW 264.7 cells were grown in 8-well glass slides, Chamber Slide™ (Nunc), as described above. Cells were washed three times in cold PBS and incubated with the FITC-labeled mimotope for 5 min at 4° C. in serial dilutions of 1:2-1:100 in cold PBS. Slides were imaged immediately with a Zeiss 410 confocal laser scanning microscope.
as §2

[9] = Groups S, C and S+C vs Group OVA, 200 μg i.p.

CISLTEWSMWYRH [B11 peptide with an additional cysteine residue at the amino terminus]
binding properties to ManLAM-binding antibodies ([1]; peptide with extra cysteine at amino terminus): maintained binding properties

ISLTEWSMWYRH (random phage display library) [B11 peptide]
inhibition of IL-12 secretion ([2]; LPS-IFN-γ-activated RAW 264.7): 20%
production of IL-12 ([2]; non-activated RAW 264.7): not induced
production of IL-6 ([2]; non-activated RAW 264.7, data not shown): not induced
appearance, behavior, diarrhea, weight loss (TNBS induced colitis; all 11 days of experiment, all treated mice): normal appearance and behavior, and no diarrhea or weight loss
colons normal in color and thickness (TNBS induced colitis; day 11): 50%
colons with lesions (TNBS induced colitis; day 11): None
macroscopic inflammation symptoms of colon, spleen and liver (TNBS induced colitis; day 11): reduced
treated mice with spleen and liver normal in size and colorization (TNBS induced colitis; day 11): 75%
colitis symptoms (TNBS induced colitis; i.p. 200 μg at days 1 and 5): reduced the colitis symptoms
decrease in OD in competitive ELISA [3]: 100%
inhibition of apoptosis (RAW 264.7 cell line; LPS-IFN-γ-activated RAW 264.7): 30%
induction of apoptosis (RAW 264.7 cell line; non-activated RAW 264.7): did not induce apoptosis
anti-peptide antibody titers in BCG-vaccinated individuals ([4]; BCG-vaccinated vs TB patients): significantly lower than in TB patients
titers of antigen-binding antibodies in sera of TB patients ([4]; TB patients vs healthy individuals): Significantly higher titers
IgG Abs in sera binding the coated antigen [1]: significantly higher than those of the naive mice
binding to CS40 mAb by direct ELISA (CS40 mAb): bound the CS40 mAb
eosonophil levels in BALF (allergic asthma; S i.p., C i.p., S+C i.p. and C i.n. vs OVA mice, 200 μg, FACS): significantly lower
IL-12 in BALF (allergic asthma; all mice treated i.p.): significantly lower
IL-10 in BALF (allergic asthma; i.n. before challenge, i.p. both before sensitization and challenge): significantly lower
TNF-α in BALF (allergic asthma; i.p. and i.n. before challenge): significantly lower
IL-4 in BALF (allergic asthma; i.p. and i.n. before challenge, i.p. both before sensitization and challenge): significantly lower
inflammation in lung histology (allergic asthma; treated i.p. before sensitizations or before challenges): no inflammation was observed
LPS-induced effects (LPS-induced symptoms [5]): successfully reduced the LPS-induced effects
inhibition of proliferation (primary spleen cells; spleen cells of Mtb infected mice): 40-50%
inhibition of proliferation (primary spleen cells; spleen cells of adjuvant stimulated mice): 40-50%
inhibition of proliferation (primary spleen cells; spleen cells of naive mice): 40-50%
eosonophil levels in peritoneum lavage (allergic peritonitis; 200 μg one hour before challenge with OVA): as in the control group
IFN-γ levels in peritoneum lavage (allergic peritonitis; [9]): significantly lower
IL-10 levels in peritoneum lavage (allergic peritonitis; [9]): significantly lower
IL-12 levels in peritoneum lavage (allergic peritonitis; [9]): significantly lower
State after LPS-B11 pre-treatment (LPS-induced symptoms [6]; 1 hr post LPS injection): healthy
State after LPS-B11 pre-treatment (LPS-induced symptoms [6]; 20 hr post LPS injection): Healthy
State after LPS-B11 pre-treatment (LPS-induced symptoms [6]; 48 hr post LPS injection): Healthy
LPS symptoms (appearance, behavior, curing rate) (LPS-induced symptoms [6]; pre-treated i.p. 200 μg 4 days before LPS): milder LPS symptoms
binding to THP-1 [7]: Binds

FITC-conjugated B11 peptide: B11 peptide conjugated to FITC (ISLTEWSMWYRH; also: FITC conjugated)
binding to macrophages in presence of D-mannose ([8]; FACS, 0.125 M D-mannose): inhibited by D-mannose
binding to RAW 264.7 ([8]; confocal microscopy and FACS): bound the macrophage cell line RAW 264.7
binding to THP-1 in presence of D-mannose ([7]; 0.125 M D-mannose): inhibited by D-mannose
